Marks after values point to notes of the source that are not given here. Starred links: 1 amine or outer side, 2 acyl side, 3 side chain; linkers in the order of their positions; H or OH if unused. Non-standard residues stand in square brackets, D forms with d. Residues, ends and D or L forms follow the SMILES beside them. Groups on a side chain read outwards from the residue. *: point of attachment. C18 diacid = O=C(O)CCCCCCCCCCCCCCCCC(=O)*; γGlu = O=C(O)[C@H](CCC(=O)[*:2])N[*:1]; AEEA = NCCOCCOCC(=O)O; Aib = CC(C)(N)C(=O)O
Experiments:
DIO mice (C57BL/6) = assay: Acute treatment in DIO mice (PCSK9, FGF-21, cholesterol); format: in vivo, mouse; settings: 30 nmol/kg sc, 16 hours post dose
Description: In order to investigate metabolic pathways involved with the treatment of compounds of the present invention independent of weight loss, compounds are tested in DIO mice (C57BL/6) acutely. The mice used are three to four months old on a high fat diet for at least 4 weeks. Animals are individually housed in a temperature-controlled (24° C.) facility with a 12 hour light/dark cycle (lights on 6:00), and free access to food and water. Vehicle or testing compounds were administered to mice by subcutaneous injection at 16:00 the day before the study day. Animals were sacrificed 16 hours later to collect blood via cardia puncture. Statistics are analyzed using ANOVA with Dunnett's comparison for JMP-6. Significance is denoted at p≤0.05 vs vehicle.
Food intake was decreased to a similar level in all treatment groups, which may indicate that changes in cholesterol, PCSK9 and FGF-21 are food-intake independent.

hGLP-1-R = hGLP-1-R (Homo sapiens, UniProt P43220); assay: Functional hGLP-1-R assay (cAMP HTRF, HEK-293 clonal cell line); format: cell-based; set-up: expressed in transfected cells; host or cells: HEK-293 clonal cell line over-expressing the receptor
hGLP-1-R, sequence (P43220 24-463): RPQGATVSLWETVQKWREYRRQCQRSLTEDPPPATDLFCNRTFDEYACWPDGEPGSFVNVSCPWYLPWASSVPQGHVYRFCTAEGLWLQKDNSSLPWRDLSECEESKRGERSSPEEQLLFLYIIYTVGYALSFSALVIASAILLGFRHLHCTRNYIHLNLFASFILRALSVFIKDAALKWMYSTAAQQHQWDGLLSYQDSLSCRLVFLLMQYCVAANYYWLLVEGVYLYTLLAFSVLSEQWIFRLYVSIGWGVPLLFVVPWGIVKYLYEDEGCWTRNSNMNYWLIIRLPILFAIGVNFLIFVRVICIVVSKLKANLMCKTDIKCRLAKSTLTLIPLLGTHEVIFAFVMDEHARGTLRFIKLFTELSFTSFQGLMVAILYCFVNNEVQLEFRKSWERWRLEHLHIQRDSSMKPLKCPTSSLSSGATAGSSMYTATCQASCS
Description: After a 60 minute incubation at room temperature, the resulting increase in intracellular cAMP (adenosine 3′,5′-cyclic monophosphate) is quantitatively determined using the CisBio cAMP Dynamic 2 HTRF Assay Kit (62AM4PEJ). cAMP levels within the cell are detected by adding the cAMP-d2 conjugate in cell lysis buffer (20 μl) followed by the antibody anti-cAMP-Eu^3+-Cryptate, also in cell lysis buffer (20 μl).
A relative EC50 value and percent top (Emax) are derived by non-linear regression analysis using the percent maximal response vs. the concentration of peptide added, fitted to a four-parameter logistic equation (Genedata Screener®).
Means for EC50 are expressed as Geometric means±standard error of the mean (SEM) with the number of replicates (n) indicated in parenthesis. Means for Emax are expressed as the arithmetic mean±standard error. ND signifies that agonist activity was not detected.

Emax (hGLP-1-R; HEK293): 105 ± 5% | EC50 (hGLP-1-R; cAMP, 60 minute incubation, 0.25% FBS, 0.05% BSA, geometric mean, read-out: Human GLP-1-R EC50, nM ± SEM (n)): 34.3 ± 9.4 nM
Compound: CC(C)C[C@H](NC(=O)[C@H](CC(C)C)NC(=O)[C@H](Cc1c[nH]c2ccccc12)NC(=O)[C@H](CCC(=O)O)NC(=O)[C@@H](NC(=O)[C@H](Cc1ccccc1)NC(=O)[C@H](CCC(=O)O)NC(=O)[C@H](CCCCNC(=O)COCCOCCNC(=O)COCCOCCNC(=O)CC[C@H](NC(=O)CC[C@H](NC(=O)CCCCCCCCCCCCCCCCC(=O)O)C(=O)O)C(=O)O)NC(=O)[C@H](C)NC(=O)[C@H](CCCCN)NC(=O)[C@H](CCCCN)NC(=O)[C@H](CCC(=O)O)NC(=O)[C@H](CC(=O)O)NC(=O)[C@H](CC(C)C)NC(=O)[C@H](Cc1ccc(O)cc1)NC(=O)[C@H](CCCCN)NC(=O)[C@H](CO)NC(=O)[C@H](Cc1ccc(O)cc1)NC(=O)[C@H](CC(=O)O)NC(=O)[C@H](CO)NC(=O)[C@@H](NC(=O)[C@H](Cc1ccccc1)NC(=O)[C@@H](NC(=O)CNC(=O)[C@H](CCC(N)=O)NC(=O)C(C)(C)NC(=O)[C@@H](N)Cc1c[nH]cn1)[C@@H](C)O)[C@@H](C)O)C(C)C)C(=O)N[C@@H](CO)C(=O)NCC(=O)NCC(=O)N1CCC[C@H]1C(=O)N[C@@H](CO)C(=O)N[C@@H](CO)C(=O)NCC(N)=O [Compound 3] (H-H[Aib]QGTFTSDYSKYLDEKKAK([AEEA-AEEA-γGlu-γGlu-C18 diacid])EFVEWLLSGGPSSG-NH2; N-terminus assumed)
Cholesterol (% of vehicle) (DIO mice (C57BL/6)): 55.6* % of vehicle | FGF-21 (% of vehicle) (DIO mice (C57BL/6)): 1124* % of vehicle | PCSK9 (% of vehicle) (DIO mice (C57BL/6)): 15.6* % of vehicle

Source: patent US9938335B2, “Glucagon and GLP-1 co-agonist compounds” (Eli Lilly and Company, priority 2015, dated 2018)
